Data set [1] relates to SW-480 cells. The data set is described as follows: Chemotherapy response of colon cancer cell lines (trypan blue counts), SW-480. The conditions noted are these: 10 days; Rspondin3 75 ng/ml and Wnt3a 100 ng/ml; inhibitors 1 μM. The data set is classed as cell-based, human. How it is done: (§1) Cells (100,000 per well) were seeded in […] of complete growth medium in 12-well plates and incubated with chemotherapeutic agents or vehicle. Cells were split every 48 hours and cell viability was assessed by counting viable cells based on trypan blue vital dye staining (Invitrogen), according to the manufacturer's instructions. Chemotherapeutic drugs included: asparaginase (pegaspargase, Shire, Lexington, MA), CHIR99021 (Selleckchem), recombinant human Wnt3A protein (R&D systems, Minneapolis, MN) and recombinant human R-Spondin 3 protein (R&D systems, Minneapolis, MN). BRD0705 and BRD3731 were synthesized as described (Wagner et al., 2018). Caspase 3/7 activity was assessed using the Caspase Glo 3/7 Assay (Promega, Madison, WI) according to the manufacturer's instructions.

In data set [2] the test system is HCT-15 cells. The data set is described as follows: Chemotherapy response of colon cancer cell lines (trypan blue counts), HCT-15. Format: cell-based, human. The conditions noted are these: 10 days; Rspondin3 75 ng/ml and Wnt3a 100 ng/ml; inhibitors 1 μM. How it is done: as §1
The subject of data set [3] is CCRF-CEM cells. As to the kind of experiment: Viable cell counts (trypan blue) of CCRF-CEM cells treated with asparaginase and other agents. Format: cell-based, human. The conditions noted are these: for sensitization to asparaginase by isoform-selective GSK3 inhibitor: 8 days (FIG. 4a); for effect on Wnt-induced sensitization to asparaginase: shRNA-transduced cells, rapamycin 1 nM, RAD001 10 nM, AZD2014 10 nM. How it is done: (§2) Cells (25,000 per well) were seeded in 100 μl of complete growth medium in 96-well plates and incubated with chemotherapeutic agents or vehicle. T-ALL cells were split every 48 hours in a 1:5 ratio. Briefly, 20 μl of cells were mixed with 80 μl fresh culture medium, supplemented with vehicle or chemotherapeutic drugs at the indicated doses. AML cells were split every 72 hours as described above. Cell viability was assessed by counting viable cells based on trypan blue vital dye staining (Invitrogen), according to the manufacturer's instructions. Chemotherapeutic drugs included: PEG-asparaginase (“oncaspar”, Shire, Lexington, MA), dexamethasone (Sigma-Aldrich), vincristine (Selleckchem, Houston, TX), doxorubicin (Sigma-Aldrich), 6-mercaptopurine (Abcam, Cambridge, UK), CHIR99021 (Selleckchem), bortezomib (Selleckchem), rapamycin (Selleckchem), RAD001 (Selleckchem), AZD2014 (Selleckchem), and Wnt3A (R&D systems, Minneapolis, MN). BRD0705 and […] were synthesized as described^15. Caspase 3/7 activity was assessed using the Caspase Glo 3/7 Assay (Promega, Madison, WI) according to the manufacturer's instructions.

The subject of data set [4] is T-ALL, acute myeloid leukemia and hypodiploid B-ALL cell lines. As to the kind of experiment: Asparaginase sensitization across a panel of treatment-resistant acute leukemia cell lines (trypan blue counts). Format: cell-based, human. The conditions noted are these: CHIR99021 1 μM, 8 days. Here is the method: as §2
Data set [5] deals with CCD-841 cells. As to the kind of experiment: Viable cell counts of normal colonic epithelium cells. The data set is classed as cell-based, human. The conditions noted are these: CHIR99021 1 μM, 10 days. Here is the method:
as §1

Data set [6] relates to normal human CD34+ hematopoietic progenitors. The data set is described as follows: Viable cell counts of normal CD34+ hematopoietic progenitors. The data set is classed as cell-based. The conditions noted are these: CHIR99021 1 μM, day 4. The source says:
Cell lines and cell culture. 293T cells, T-ALL cell lines, AML cell lines and B-ALL cell lines were obtained from ATCC (Manassas, VA, USA), DSMZ (Braunschweig, Germany), the A. Thomas Look laboratory (Boston, MA, USA) or Alex Kentsis laboratory (New York, NY, USA) and cultured in DMEM, RPMI 1640 or MEM alpha (Thermo Fisher Scientific) with 10% or 20% fetal bovine serum (FBS, Sigma-Aldrich, Saint Louis, MO) or TET system approved FBS (Clontech, Mountain View, CA) and 1% penicillin/streptomycin (Thermo Fisher Scientific) at 37° C., 5% CO2. Human CD34+ progenitor cells from mobilized peripheral blood of healthy donors were obtained from Fred Hutchinson Cancer Research Center (Seattle, WA, USA) (e.g., found on the world wide web at sharedresources.fredhutch.org/products/cd34-cells). […]
Cells (25,000 per well) were seeded in 100 μl of complete growth medium in 96-well plates and incubated with chemotherapeutic agents or vehicle. […] Cell viability was assessed by counting viable cells based on trypan blue vital dye staining (Invitrogen), according to the manufacturer's instructions. […] Caspase 3/7 activity was assessed using the Caspase Glo 3/7 Assay (Promega, Madison, WI) according to the manufacturer's instructions.

For data set [7], the system named is Apc-deficient organoids. As to the kind of experiment: Chemotherapy response in mouse intestinal organoids, Apc-deficient. Format: cell-based. Particulars: asparaginase 100 U/L, BRD0705 1 μM or both, 10 days. Here is the method: For assessment of chemotherapy response in mouse intestinal organoids, Apc-deficient and Rspo3 fusion organoids were cultured in basal organoid medium (medium not containing murine Wnt3A, murine Noggin and human R-spondin1 protein). A full 0.95 cm2 well of organoids was split into new wells, aiming to obtain approximately 25 organoids per well. Organoids were split according to previously published protocols (O'Rourke et al., 2016). Matrigel and basal organoid culture medium were supplemented with vehicle or chemotherapeutic agents, and split every 48 hours. After 10 days in culture, total organoid numbers per wells were counted by light microscopy. Microscopy was performed using an 100× objective on an Axio Imager A1 microscope (Zeiss, Oberkochen, Germany), with images captured using a CV-A10 digital camera (Jai, Yokohama, Japan) and Cytovision software (Leica Biosystems, Wetzlar, Germany).
Organoids touching the edge of a well were excluded from counting. Images were taken from a representative of three independent experiments and analyzed with ImageJ Software (Schneider et al., 2012).

Data set [8] has as its system APC-mutant CRC patient-derived xenograft. The data set is described as follows: APC-mutant human CRC patient-derived xenograft in nude mice. Format: in vivo, mouse. The conditions noted are these: asparaginase 1000 U/kg×1 dose; BRD0705 every 12 hours×21 days. How it is done:
For implantation of APC mutant human CRC PDX, patient tumor material was collected in PBS and kept on wet ice for engraftment within 24 h after resection. Upon arrival, necrotic and supporting tissues were carefully removed using a surgical blade. Approximately 1 mm×1 mm tissue fragments were implanted subcutaneously into the flank region of male nude mice, as described (Bullman et al., 2017). For injection of intestinal organoids (Rspo3; p53; Kras, or Apc; p53; Kras), per mouse one full […] well of organoids was injected subcutaneously.
As soon as tumors reached a volume of approximately 150 mm3, treatment of mice was begun. […] Vehicle was formulated as previously described (Wagner et al., 2018).
After start of treatment, body weight and tumor size were evaluated every other day. Tumor size was assessed by caliper measurements and the approximate volume of the mass was calculated using the formula (l×w×w)×(π/6), where 1 is the major tumor axis and w is the minor tumor axis.

Data set [9] relates to asparaginase-resistant T-ALL patient-derived xenograft. As to the kind of experiment: T-ALL patient-derived xenograft in NRG mice, survival. Format: in vivo, mouse. How it is done:
Mice were exposed to a sub-lethal dose of radiation (4.5 Gy) and subsequently injected with human leukemia cells. All injections were performed by tail vein injection. Blood collections were performed to monitor leukemia onset in mice injected with leukemic cells, which was assessed by staining for human CD45 expression using anti-human CD45-PE-Cy7 (1:400, BD #560915) antibody staining. As soon as leukemia engraftment was confirmed based on ≥5% human leukemia cells in the peripheral blood, treatment of mice was begun. Asparaginase (1,000 U/kg) or PBS were injected by tail vein injection as a single dose on day 1 of drug treatment, and BRD0705 (15 mg/kg) or vehicle were given every 12 hours for 12 days by oral gavage. Vehicle was formulated as previously described.^15 Mice were anesthetized with isoflurane (Patterson Veterinary, Greeley, CO) prior to gavage. After start of treatment, body weight was monitored every third day. To assess bilirubin levels, mandibular blood vein collection was performed, and bilirubin levels were measured in the Boston Children's Hospital clinical laboratory. The primary endpoint of this experiment was survival. Mice were euthanized as soon as they developed weight loss greater than 15% or signs/symptoms of progressing disease. Post-mortem analysis of leukemic burden was performed by extracting bone marrow cells, which were filtered through a […] mesh filter and red blood cells were lysed using the BD Biosciences Red Blood Cell Lysis reagent (BD #555899). Isolated bone marrow cells were stained for assessment of leukemic burden using following antibodies from BD Biosciences: Anti-human CD4-APC-Cy7 (1:100, BD #561839) and anti-human CD8-PerCP-Cy5.5 (1:100, BD #560662).

`CC(C)(C)Cc1[nH]nc2c1[C@](C)(c1ccccc1)C1=C(CC(C)(C)CC1=O)N2` [BRD3731]: the sensitization to asparaginase entry in [1] and in data set [2] was “had little effect” in each case. For the same molecule, the “sensitization to asparaginase by isoform-selective GSK3 inhibitor” value in [3] is listed as “only modest effects”.

As to `CC(C)C[C@H](NC(=O)[C@H](Cc1ccccc1)NC(=O)c1cnccn1)B(O)O` [bortezomib], the single-agent toxicity result in data set [3] (10 nM dose) is on record as “lacked single-agent toxicity”. Besides, the “sensitization to asparaginase by proteasome inhibition” value in data set [3] (bortezomib 10 nM, 8 days) is “phenocopied Wnt-induced sensitization to asparaginase”. Also, the “toxicity (viability), dose range” value in data set [3] (indicated doses, 48 hours (FIG. 10)) is “highly toxic at intermediate doses”.

`CNC(=O)c1cccc(-c2ccc3c(N4CCOC[C@@H]4C)nc(N4CCOC[C@@H]4C)nc3n2)c1` [AZD2014]: the “effect on Wnt-induced sensitization to asparaginase” value in data set [3] (8 days) was “had no effect”.

With `CO[C@H]1C[C@@H]2CC[C@@H](C)[C@@](O)(O2)C(=O)C(=O)N2CCCC[C@H]2C(=O)O[C@H]([C@H](C)C[C@@H]2CC[C@@H](OCCO)[C@H](OC)C2)CC(=O)[C@H](C)/C=C(\C)[C@@H](O)[C@@H](OC)C(=O)[C@H](C)C[C@H](C)/C=C/C=C/C=C/1C` [RAD001], the “effect on Wnt-induced sensitization to asparaginase” value in data set [3] (8 days) is recorded as “had no effect”.

In the case of `Cc1c[nH]c(-c2cnc(NCCNc3ccc(C#N)cn3)nc2-c2ccc(Cl)cc2Cl)n1` [CHIR99021], the sensitization to asparaginase result in [1] and in data set [2] was “sufficient to induce asparaginase sensitization” throughout. Also, in [3] (CHIR99021 1 μM, 8 days, vincristine, 6-mercaptopurine, dexamethasone, doxorubicin), the “sensitization to other antileukemic drugs” value is reported as “Nor did it sensitize leukemic cells to other commonly used antileukemic drugs”. Moreover, the asparaginase sensitization entry in data set [4] is reported as “induced significant asparaginase sensitization”. Also, the “toxicity of GSK3 inhibition combined with asparaginase to normal colonic cells” value in data set [5] was “little toxicity”. Moreover, the “toxicity of asparaginase to normal progenitors with GSK3 inhibitor” value in data set [6] is listed as “did not increase the toxicity of asparaginase”.

For the molecule `CC[C@@]1(c2ccccc2)C2=C(CC(C)(C)CC2=O)Nc2[nH]ncc21` [BRD0705], the sensitization to asparaginase entry in data set [1] and in data set [2] was “sensitized” in each case. In addition, in data set [7], the “toxicity to organoids (viable organoid count)” value is “little toxicity”. Besides, the “sensitization to asparaginase by isoform-selective GSK3 inhibitor” value in [3] is “effectively sensitizes”. Moreover, in [8], the “activity on tumor growth” value was “no activity”. In addition, the “difference in survival between vehicle and monotherapy groups (log-rank)” value in data set [9] (FIG. 4D, Kaplan-Meier) is “not significant”. Besides, the “efficacy against xenograft (survival)” value in data set [9] (asparaginase 1,000 U/kg i.v. single dose, BRD0705 15 mg/kg oral gavage every 12 hours for 12 days) was “highly resistant”.

B1: Wnt3A: Wnt ligand, recombinant protein (R&D systems) (protein, UniProt P56704 19-352, looked up)
Protein Wnt-3a: SYPIWWSLAVGPQYSSLGSQPILCASIPGLVPKQLRFCRNYVEIMPSVAEGIKIGIQECQHQFRGRRWNCTTVHDSLAIFGPVLDKATRESAFVHAIASAGVAFAVTRSCAEGTAAICGCSSRHQGSPGKGWKWGGCSEDIEFGGMVSREFADARENRPDARSAMNRHNNEAGRQAIASHMHLKCKCHGLSGSCEVKTCWWSQPDFRAIGDFLKDKYDSASEMVVEKHRESRGWVETLRPRYTYFKVPTERDLVYYEASPNFCEPNPETGSFGTRDRTCNVSSHGIDGCDLLCCGRGHNARAERRREKCRCVFHWCCYVSCQECTRVYDVHTCK
On to B1, for which, in [3] (100 ng/ml Wnt3A, 8 days), the “sensitization to asparaginase by Wnt ligand” value is recorded as “phenocopied”.

These data come from US20260151467A1, “METHOD FOR TREATING CANCER” (THE CHILDREN'S MEDICAL CENTER CORPORATION, priority 2018, published 2026).
